Experimental data from PMC5686155, “Crystal structures of the mitochondrial deacylase Sirtuin 4 reveal isoform-specific acyl recognition and regulation features” (Nature Communications, 2017).
Values joined by “and” are separate entries in the source; they are usually repeats but may differ in a detail not shown here. Equal values may be shown once.

How the values were obtained:
[1] = biological target: T1, hSirt4 (Homo sapiens, UniProt Q9Y6E7); test: HMG-FdL (Fluor-de-Lys-like) de-HMG-ylation assay; assay type: biochemical; details: HMG-FdL assay, 1 µM hSirt4, 500 µM HMG-FdL substrate, 500 μM NAD+, 37 °C, 20 min; fluorescence; n = 2; NADH corrected through spiking controls
T1 construct: hSirt4(25–314) in pQE30 coding for an N-terminal His6-tag; His6 (N); made in house; host or cells: Escherichia coli CodonPlus(DE3)
T1 sequence (Q9Y6E7 25-314): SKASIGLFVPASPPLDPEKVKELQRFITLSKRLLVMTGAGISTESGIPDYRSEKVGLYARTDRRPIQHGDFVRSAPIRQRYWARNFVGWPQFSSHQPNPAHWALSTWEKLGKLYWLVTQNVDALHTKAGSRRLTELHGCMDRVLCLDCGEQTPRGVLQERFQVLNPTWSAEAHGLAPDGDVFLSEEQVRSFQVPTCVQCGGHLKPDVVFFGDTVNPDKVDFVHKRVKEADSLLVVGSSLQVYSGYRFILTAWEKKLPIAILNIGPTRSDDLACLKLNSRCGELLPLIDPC
Method: As a convenient and complementary, fluorescence-based alternative to the coupled enzymatic assay with HMG-peptides, we established substrate and assay corresponding to the popular “Fluor-de-Lys” (FdL) deacylation assays. […] We then employed the FdL-like Sirt4 assay for studying the effects of NAM and NADH, which are not compatible with the coupled assay. […] After 20 min, developer solution (2 mM NAM and 10 mg mL^−1 trypsin) in assay buffer was added 1:1 and samples were incubated for 45 min at room temperature. Fluorescence was measures using a FluoDia T70 with excitation wavelength 365 nm and emission wavelength 465 nm.

[2] = biological target: T2, Sirt4 (Homo sapiens, UniProt Q9Y6E7); test: MS-based Sirt4 inhibition assay with HMG-CPS1 substrate; assay type: biochemical; details: n = 2 (Supplementary Fig. 4b)
T2 construct: hSirt4(25–314) in pQE30 coding for an N-terminal His6-tag; His6 (N); made in house; host or cells: Escherichia coli CodonPlus(DE3)
T2 sequence (Q9Y6E7 25-314): T1 sequence (Q9Y6E7 25-314)
Method: For MS and UV analyzes of deacylation reactions, samples were prepared as described for the coupled continuous assay, stopped by mixing 1:1 with 0.5% TFA after 0 and 60 min, diluted to 20 µM peptide using 0.1% FA, and analyzed by HPLC-separation using a Shimadzu Prominence UFLC (Shimadzu, Duisburg, Germany) coupled to ESI-MS and UV detection. Samples were washed on a Piccolo Proto 200 C4 5 μm 2.5 × 0.5 mm trap column (Higgins Analytical, Mountain View, California) and subsequently subjected to a Jupiter C4 5 μm 300 Å 150 × 1 mm analytical column (Phenomenex, Torrance, California) for reversed phase separation, with 99.9% H2O, 0.1% TFA as buffer A and 99.9% ACN, 0.1% TFA as buffer B. Peptides were eluted over a 20 min gradient from 1 to 55% buffer B, followed by 1 min from 55 to 90% buffer B with 70 µL min^−1 flow-rate. UV-detection was done using a Shimadzu SPD-20A detector at 280 nm. MS analysis was performed by ESI-TOF-MS on an AB Sciex TripleTOF 5600+ mass spectrometer (Sciex, Darmstadt, Germany) with a DuoSpray Ion Source using the following settings: floating voltage of 5500 V and declustering potential of 100 with one TOF experiment summing over four time bins. We detected in a mass range from 300 to 2500 m/z. […]

[3] = test system: other sirtuins; details: cited from earlier work
[4] = biological target: T1, hSirt4; test: Coupled continuous enzymatic assay monitoring NAM release from NAD+ (Sirt4 deacylation); assay type: biochemical; details: hSirt4 wild-type
Method: The seven mammalian sirtuins vary in their sequence and acyl preferences[16],[19]. […] We therefore asked whether other acyl modifications would yield deacylation efficiencies expected for a physiologically dominant Sirt4 activity.
(§1) The coupled continuous assay was performed as reported. […] Reactions were monitored in microplates at room temperature for 1 h through absorption measurements at 340 nm in a LAMBDAScan plate reader (MWG Biotech, Ebersberg, Germany).

[5] = test system: xSirt4 Wild-type; test: Coupled continuous assay, xSirt4 wild-type; assay type: biochemical, Xenopus tropicalis; details: HMG-CPS1 peptide substrate, n = 2
Method: The coupled continuous assay was performed as reported. Briefly, assays in 20 mM sodium phosphate buffer pH 7.8 contained 5 µM hSirt4 or 3–5 µM xSirt4, 0.05 mg ml^−1 nicotinamidase, 2 U ml^–1 GDH, 3.3 mM a-ketoglutarate, 0.2 mM NADPH, 10% DMSO, and NAD^+ at 2 mM or as indicated, and substrate peptide at 500 µM or as indicated. Reactions were monitored in microplates at room temperature for 1 h through absorption measurements at 340 nm in a LAMBDAScan plate reader (MWG Biotech, Ebersberg, Germany).

[6] = test system: xSirt4 Delta 198–203; test: Coupled continuous assay, xSirt4 variant; assay type: biochemical, Xenopus tropicalis; details: Sirt4 loop deletion variant (198-203), HMG-CPS1 peptide substrate; n = 2
Method: For xSirt4(32–315) and zSirt4(29–310) eluted from the NiNTA material, the buffer was changed to 50 mM Tris/HCl pH 7.5, 200 mM NaCl, (supplemented with 20% glycerol for xSirt4) in a HiPrep Desalting column and subjected to Senp2-proteolysis for 30 min on ice. The protein was loaded on a HisTrap HP 1 mL column (GE Healthcare) and eluted with 50 mM Tris/HCl pH 7.5, 200 mM NaCl, 30–50 mM imidazole. It was subsequently subjected to gel filtration on a Superdex 75 10/300 GL (xSirt4) or Superdex 200 10/300 GL (zSirt4) column (both GE Healthcare) in 25 mM Tris/HCl pH 7.5, 150 mM NaCl (+20 % glycerol for xSirt4), concentrated in a Microsep concentrator, flash-frozen in liquid nitrogen, and stored at −80 °C. xSirt4 single-site variants were generated using the QuickChange protocol (see Supplementary Table 1 for primer sequences) and verified by DNA sequencing, and the proteins were produced as described for wild-type xSirt4.
as §1

[7] = test system: xSirt4; test: Thermal denaturation shift assay; assay type: binding, Xenopus tropicalis; details: 3 µM xSirt4, SYPRO orange, 20 to 73 °C; n = 2
Method: Thermal shift assays were performed in 96-well PCR plates using 3 µM xSirt4 (32–315) or 3 µM zSirt4 (29–310) and SYPRO orange (Thermo Fisher, Waltham, MA, USA) covered with 15 µL mineral oil. Heating and fluorescence measurements were performed in a FluoDia T70 with 1 K steps from 20 to 73 °C (excitation: 465 nm, emission: 580 nm). The data were analyzed in GraFit (Erithacus Software Ltd, Horley, UK) by nonlinear fitting using a two state model.

[8] = test system: sirtuins; details: cited from earlier work
From the text: All sirtuins share NAD^+ as an essential cosubstrate, but the Sirt4 nucleotide binding site differs from those of other isoforms. The Sirt4-loop tightens the entry of the C-site, where the conserved Asp145 recognizes the NAM moiety of NAD^+ [25], and its tip around Pro200 will have to rearrange slightly to allow productive NAD^+ binding (Supplementary Fig. 3c), consistent with a switch function.

| Compound | IC50 [1] [µM] | IC50 [2] [µM] | IC50 ([3]; other sirtuin isoforms, read-out: IC 50 on other sirtuins) | Ki ([3]; read-out: K i on other sirtuin isoforms) [µM] | K M (NAD+ titration) [4] [µM] | K M (NAD+ titration) [5] [µM] | K M (NAD+ titration) [6] [µM] | Sirt4 stabilization in thermal denaturation shift experiments [7] | K M(NAD+) range reported for sirtuins [8] [µM] |
| --- | --- | --- | --- | --- | --- | --- | --- | --- | --- |
| NC(=O)C1=CN([C@@H]2O[C@H](COP(=O)(O)OP(=O)(O)OC[C@H]3O[C@@H](n4cnc5c(N)ncnc54)[C@H](O)[C@@H]3O)[C@@H](O)[C@H]2O)C=CC1 [NADH] | 126 ± 12 | 142 ± 54 | 1300 to 27900 µM and ≥ 1300 µM | ≥ 700 |  |  |  |  |  |
| NC(=O)c1ccc[n+]([C@@H]2O[C@H](COP(=O)([O-])OP(=O)(O)OC[C@H]3O[C@@H](n4cnc5c(N)ncnc54)[C@H](O)[C@@H]3O)[C@@H](O)[C@H]2O)c1 [NAD^+] |  |  |  |  | 62 ± 14 | 70 ± 14 | 66 ± 9 | significant Sirt4 stabilization | 14 to 600 |
